In US7498162B2, “Lactic acid bacteria capable of reducing an individual's tendency to develop allergic reactions” (Nestec S.A., priority 2000, dated 2009):

Tests used:
Format in all cases: in vivo, Balb/c mice
[1] = system: Spleen lymphocyte; experiment: Splenocyte specific proliferation assay ([3H]-Thy, stimulation index); conditions: synthetic peptide given orally; for Spleen lymphocyte SI (test/control): SI: Stimulation Index; for T cell proliferation / T cell response: result in words
Procedure: (§1) For assessing the tolerogenic properties of the various peptides female Balb/c mice were used, obtained from IFFA-Crédo (L'Abresle France). The animals were all bred and raised on a milk free diet. At the beginning of the experiments the animals were 3 weeks old. They received by gavage native β-lactoglobulin (5 mg/g of body weight), various amounts of digested β-lactoglobulin and various amounts of the different peptides obtained under a) above. Control mice were fed saline water. After 5 days on such a diet all mice were immunized with β-lactoglobulin and ovalbumin (grade V, Sigma) as a non related antigen in order to assess the specificity of the immune response. A delayed type hypersensitivity evaluation (DTH) was performed 21 days after the systemic challenge by comparing the thickness of the left rear footpad, prior to and after the immunization. 24 hours after the immunization the foot pad thickness of the animals were measured (expressed in Δ thickness (mm)). Subsequently, blood was taken from all mice, followed by talking the spleens, that were pooled according to group treatment. Splenocyte specific proliferation assays were performed for each group. The intestinal contents were individually collected. Serum and intestinal samples were individually frozen at −80° C. until performance of the respective assays. Anti-β-lactoglobulin IgE and anti-ovalbumin IgE levels were determined both in serum and intestinal samples.
Spleen cell solutions were homogenized in PBS and purified. The cells were co-cultured in the presence of β-lactoglobulin or phytohemagglutinin A. Tritiated thymidine ([^3H]-Thy (Amersham, Zürich) was added during the last 6 hours of culture and the plates were harvested and analyzed by scintillation counting. Stimulation indices were calculated as the ratio of blank-substracted test and control levels expressed as the mean cpm of [^3H]-Thy incorporated by triplicate cultures.
(§2) The synthetic peptides were analysed for their tolerogenic capacity in the […] mouse model.

[2] = system: anti-β-lactoglobulin IgE; experiment: Oral tolerance mouse model: anti-β-lactoglobulin IgE ELISA titer; conditions: synthetic peptide given orally; for IgE titer (log) (test/control): test value of the test/control pair (control 3.39), mice then immunized with β-lactoglobulin
Procedure: as §1
The serum and intestinal fluids were diluted and assayed in duplicate for anti-β-lactoglobulin and anti-ovalbumin IgE antibodies using ELISA. Pooled samples of 20 non immunized mice were used as negative controls. The titers were determined by calculating the dilution of the sample, that gave twice the absorbance of the negative control. The titers were expressed as the log10 of the reciprocal of he dilution
as §2

[3] = system: MLN lymphocytes; experiment: Mesenteric lymph node lymphocyte proliferation (stimulation index); conditions: synthetic peptide given orally

Substance | Spleen lymphocyte SI (test/control) [1] | IgE titer (log) (test/control) [2] | MLN lymphocytes SI (test/control) [3] | T cell proliferation / T cell response [1] | oral tolerance to BLG ([2]; result in words) | IgE production ([2]; result in words)
T-6/T-17: synthetic β-lactoglobulin peptide (residues 84-100), SEQ ID 24: CFKIDALNENKVLVLDTDYKKYS (CFKIDALNENKVLVLDTDYKKYS) | 0.92 | 3.40/3.39 log | 0.81 | – | – | –
T-6: synthetic β-lactoglobulin peptide (residues 84-91 with flanking residues and extra Cys), SEQ ID 22: C F K I D A L N E N K V S R (CFKIDALNENKVSR) | 0.53 | 3.24/3.39 log | 0.29 | suppressed | – | –
T-13: control peptide, N-terminus of β-lactoglobulin (residues 1-8), SEQ ID 25: L I V T Q T M K S R C (LIVTQTMKSRC) [reference compound] | 1.70 | 3.20/3.39 log | 0.87 | – | did not induce | –
T-17: synthetic β-lactoglobulin peptide (residues 92-100 with flanking residues and extra Cys), SEQ ID 23: C N K V L V L D T D Y K K Y S (CNKVLVLDTDYKKYS) | 0.31 | 2.67/3.39 log | 0.41 | reduced | – | reduced
